Data as given in ChEMBL document CHEMBL3217498, “Structure and antimicrobial properties of multivalent short peptides” (Medchemcomm, 2011).
In brackets after ≈: the same amount, converted by molar mass. Activity calls are given as the source filed them. The rule behind the calls is not given here. Non-standard residues stand in square brackets, D forms with d. Residues, ends and D or L forms follow the SMILES beside them. Groups on a side chain read outwards from the residue. *: point of attachment. Lys(α,ε-(ArgTrp)2) = N=C(N)NCCC[C@H](N)C(=O)N[C@@H](Cc1c[nH]c2ccccc12)C(=O)NCCCC[C@H](NC(=O)[C@H](Cc1c[nH]c2ccccc12)NC(=O)[C@@H](N)CCCNC(=N)N)C(=O)*; βAla = NCCC(=O)O

Legend:
Escherichia coli [1] = assay: Antibacterial activity against ampicillin and streptomycin-resistant Escherichia coli D31 assessed as growth inhibition measured over 400 generation period by standard broth microdilution assay; assay type: functional, organism-based
Staphylococcus aureus [2] = assay: Antibacterial activity against multidrug-resistant Staphylococcus aureus ATCC BAA-44 assessed as growth inhibition measured over 400 generation period by standard broth microdilution assay; assay type: functional, organism-based
Acinetobacter baumannii [3] = assay: Antibacterial activity against multidrug-resistant Acinetobacter baumannii ATCC BAA-747 assessed as growth inhibition measured over 400 generation period by standard broth microdilution assay; assay type: functional, organism-based
Staphylococcus aureus [4] = assay: Antibacterial activity against multidrug-resistant Staphylococcus aureus ATCC BAA-44 assessed as growth inhibition after 18 hrs by standard broth microdilution assay; assay type: functional, organism-based; details: ATCC BAA-44, 18 h
Escherichia coli [5] = assay: Antibacterial activity against ampicillin and streptomycin-resistant Escherichia coli D31 assessed as growth inhibition after 18 hrs by standard broth microdilution assay; assay type: functional, organism-based; details: D31, 18 h
[6] = Induction of hemolysis in sheep erythrocytes after 60 mins by spectrophotometer analysis; assay type: cell-based, Ovis aries, Erythrocyte; details: read-out: HD50
Acinetobacter baumannii [7] = assay: Antibacterial activity against multidrug-resistant Acinetobacter baumannii ATCC BAA-747 assessed as growth inhibition after 18 hrs by standard broth microdilution assay; assay type: functional, organism-based; details: ATCC BAA-747, 18 h
Staphylococcus aureus [8] = assay: Antibacterial activity against multidrug-resistant Staphylococcus aureus ATCC BAA-44 assessed as growth inhibition measured over 400 generation period by standard broth microdilution assay relative to 50% growth inhibition after first day; assay type: functional
[9] = Ratio of compound hemolytic index to indolicidin hemolytic index for ratio of HD50 for sheep erythrocytes to IC50 for Escherichia coli D31
[10] = Ratio of compound hemolytic index to indolicidin hemolytic index for ratio of HD50 for sheep erythrocytes to IC50 for Staphylococcus aureus ATCC BAA-44
Acinetobacter baumannii [11] = assay: Antibacterial activity against multidrug-resistant Acinetobacter baumannii ATCC BAA-747 assessed as growth inhibition measured over 400 generation period by standard broth microdilution assay relative to 50% growth inhibition after first day; assay type: functional
Escherichia coli [12] = assay: Antibacterial activity against ampicillin and streptomycin-resistant Escherichia coli D31 assessed as growth inhibition measured over 400 generation period by standard broth microdilution assay relative to 50% growth inhibition after first day; assay type: functional

## CC[C@H](C)[C@H](NC(C)=O)C(=O)N[C@@H](CC(C)C)C(=O)N1CCC[C@H]1C(=O)N[C@@H](Cc1c[nH]c2ccccc12)C(=O)N[C@@H](CCCCN)C(=O)N[C@@H](Cc1c[nH]c2ccccc12)C(=O)N1CCC[C@H]1C(=O)N[C@@H](Cc1c[nH]c2ccccc12)C(=O)N[C@@H](Cc1c[nH]c2ccccc12)C(=O)N1CCC[C@H]1C(=O)N[C@@H](Cc1c[nH]c2ccccc12)C(=O)N[C@@H](CCCNC(=N)N)C(=O)N[C@@H](CCCNC(=N)N)C(N)=O
Escherichia coli [1]
  growth inhibition (GI): Active
Staphylococcus aureus [2]
  growth inhibition (GI): Active
Acinetobacter baumannii [3]
  growth inhibition (GI): Active

## N=C(N)NCCC[C@H](NC(=O)[C@H](Cc1c[nH]c2ccccc12)NC(=O)[C@@H](N)CCCNC(=N)N)C(=O)N[C@@H](Cc1c[nH]c2ccccc12)C(=O)NCCCC[C@H](NC(=O)[C@H](Cc1c[nH]c2ccccc12)NC(=O)[C@H](CCCNC(=N)N)NC(=O)[C@H](Cc1c[nH]c2ccccc12)NC(=O)[C@@H](N)CCCNC(=N)N)C(=O)NCCCC[C@H](NC(=O)[C@H](CCCCNC(=O)[C@H](Cc1c[nH]c2ccccc12)NC(=O)[C@H](CCCNC(=N)N)NC(=O)[C@H](Cc1c[nH]c2ccccc12)NC(=O)[C@@H](N)CCCNC(=N)N)NC(=O)[C@H](Cc1c[nH]c2ccccc12)NC(=O)[C@H](CCCNC(=N)N)NC(=O)[C@H](Cc1c[nH]c2ccccc12)NC(=O)[C@@H](N)CCCNC(=N)N)C(=O)NCCC(N)=O (HELM PEPTIDE1{R.W.R.W.K.K.[bAla].[am]}|PEPTIDE2{R.W.R.W}|PEPTIDE3{R.W.R.W.K}|PEPTIDE4{R.W.R.W}$PEPTIDE1,PEPTIDE2,5:R3-4:R2|PEPTIDE3,PEPTIDE4,5:R3-4:R2|PEPTIDE1,PEPTIDE3,6:R3-5:R2$$$V2.0)
Staphylococcus aureus [4]
  IC50: 23.6 µg/mL (≈ 7.35 µM)
Escherichia coli [5]
  IC50: 16.4 µg/mL (≈ 5.11 µM)
[6]
  HC50 at 1 h: 131 µg/mL

## NCCCC[C@H](N)C(=O)N[C@@H](Cc1ccccc1)C(=O)NCCCC[C@H](NC(=O)[C@H](Cc1ccccc1)NC(=O)[C@@H](N)CCCCN)C(=O)NCCCC[C@H](NC(=O)[C@H](CCCCNC(=O)[C@H](Cc1ccccc1)NC(=O)[C@@H](N)CCCCN)NC(=O)[C@H](Cc1ccccc1)NC(=O)[C@@H](N)CCCCN)C(=O)NCCC(N)=O
Staphylococcus aureus [4]
  IC50: 145 µg/mL (≈ 92.1 µM)
Acinetobacter baumannii [7]
  IC50: 175 µg/mL (≈ 111 µM)
Escherichia coli [5]
  IC50: 77 µg/mL (≈ 48.9 µM)
[6]
  HC50 at 1 h: 2500 µg/mL

## N=C(N)NCCC[C@H](N)C(=O)N[C@@H](Cc1ccc(O)cc1)C(=O)NCCCC[C@H](NC(=O)[C@H](Cc1ccc(O)cc1)NC(=O)[C@@H](N)CCCNC(=N)N)C(=O)NCCCC[C@H](NC(=O)[C@H](CCCCNC(=O)[C@H](Cc1ccc(O)cc1)NC(=O)[C@@H](N)CCCNC(=N)N)NC(=O)[C@H](Cc1ccc(O)cc1)NC(=O)[C@@H](N)CCCNC(=N)N)C(=O)NCCC(N)=O
Staphylococcus aureus [4]
  IC50: 45.7 µg/mL (≈ 26.1 µM)
Acinetobacter baumannii [7]
  IC50: 193 µg/mL (≈ 110 µM)
Escherichia coli [5]
  IC50: 12.6 µg/mL (≈ 7.2 µM)
[6]
  HC50 at 1 h: 2150 µg/mL

## NCCCC[C@H](N)C(=O)N[C@@H](Cc1c[nH]c2ccccc12)C(=O)NCCCC[C@H](NC(=O)[C@H](Cc1c[nH]c2ccccc12)NC(=O)[C@@H](N)CCCCN)C(=O)NCCCC[C@H](NC(=O)[C@H](CCCCNC(=O)[C@H](Cc1c[nH]c2ccccc12)NC(=O)[C@@H](N)CCCCN)NC(=O)[C@H](Cc1c[nH]c2ccccc12)NC(=O)[C@@H](N)CCCCN)C(=O)NCCC(N)=O
Staphylococcus aureus [4]
  IC50: 23.3 µg/mL (≈ 13.5 µM)
Acinetobacter baumannii [7]
  IC50: 52 µg/mL (≈ 30.1 µM)
Escherichia coli [5]
  IC50: 30.6 µg/mL (≈ 17.7 µM)
[6]
  HC50 at 1 h: 1460 µg/mL

## CN[C@H](CC(C)C)C(=O)N[C@H]1C(=O)N[C@@H](CC(N)=O)C(=O)N[C@H]2C(=O)N[C@H]3C(=O)N[C@H](C(=O)N[C@H](C(=O)O)c4cc(O)cc(O)c4-c4cc3ccc4O)[C@H](O)c3ccc(c(Cl)c3)Oc3cc2cc(c3O[C@@H]2O[C@H](CO)[C@@H](O)[C@H](O)[C@H]2O[C@H]2C[C@](C)(N)[C@H](O)[C@H](C)O2)Oc2ccc(cc2Cl)[C@H]1O [VANCOMYCIN]
Staphylococcus aureus [8]
  fold change (FC): 2.5

## NC(=O)CCNC(=O)[C@H](CCCCNC(=O)[C@H](CCCCNC(=O)[C@H](Cc1c[nH]c2ccccc12)NC(=O)[C@@H](N)Cc1cnc[nH]1)NC(=O)[C@H](Cc1c[nH]c2ccccc12)NC(=O)[C@@H](N)Cc1cnc[nH]1)NC(=O)[C@H](CCCCNC(=O)[C@H](Cc1c[nH]c2ccccc12)NC(=O)[C@@H](N)Cc1cnc[nH]1)NC(=O)[C@H](Cc1c[nH]c2ccccc12)NC(=O)[C@@H](N)Cc1cnc[nH]1
Staphylococcus aureus [4]
  IC50: 43.3 µg/mL (≈ 24.5 µM)
Acinetobacter baumannii [7]
  IC50: 82.7 µg/mL (≈ 46.8 µM)
Escherichia coli [5]
  IC50: 30.6 µg/mL (≈ 17.3 µM)
[6]
  HC50 at 1 h: 1860 µg/mL

## N=C(N)NCCC[C@H](N)C(=O)N[C@@H](Cc1c[nH]c2ccccc12)C(=O)NCCCC[C@H](NC(=O)[C@H](Cc1c[nH]c2ccccc12)NC(=O)[C@@H](N)CCCNC(=N)N)C(=O)NCCCC[C@H](NC(=O)[C@H](CCCCNC(=O)[C@H](Cc1c[nH]c2ccccc12)NC(=O)[C@@H](N)CCCNC(=N)N)NC(=O)[C@H](Cc1c[nH]c2ccccc12)NC(=O)[C@@H](N)CCCNC(=N)N)C(=O)NCCC(N)=O (H-RWK([Trp-Arg])K(Lys(α,ε-(ArgTrp)2))[βAla]-NH2)
Staphylococcus aureus [4]
  IC50: 15 µg/mL (≈ 8.14 µM)
Escherichia coli [1]
  growth inhibition (GI): Active
Acinetobacter baumannii [7]
  IC50: 42 µg/mL (≈ 22.8 µM)
[9]
  Ratio: 10
Staphylococcus aureus [2]
  growth inhibition (GI): Active
Acinetobacter baumannii [3]
  growth inhibition (GI): Active
[10]
  Ratio: 5
Escherichia coli [5]
  IC50: 3.9 µg/mL (≈ 2.12 µM)
[6]
  HC50 at 1 h: 1960 µg/mL

## N=C(N)NCCC[C@H](NC(=O)[C@H](Cc1c[nH]c2ccccc12)NC(=O)[C@H](CCCNC(=N)N)NC(=O)[C@H](Cc1c[nH]c2ccccc12)NC(=O)[C@@H](N)CCCNC(=N)N)C(=O)N[C@@H](Cc1c[nH]c2ccccc12)C(=O)NCCCC[C@H](NC(=O)[C@H](Cc1c[nH]c2ccccc12)NC(=O)[C@H](CCCNC(=N)N)NC(=O)[C@H](Cc1c[nH]c2ccccc12)NC(=O)[C@H](CCCNC(=N)N)NC(=O)[C@H](Cc1c[nH]c2ccccc12)NC(=O)[C@@H](N)CCCNC(=N)N)C(=O)NCCCC[C@H](NC(=O)[C@H](CCCCNC(=O)[C@H](Cc1c[nH]c2ccccc12)NC(=O)[C@H](CCCNC(=N)N)NC(=O)[C@H](Cc1c[nH]c2ccccc12)NC(=O)[C@H](CCCNC(=N)N)NC(=O)[C@H](Cc1c[nH]c2ccccc12)NC(=O)[C@@H](N)CCCNC(=N)N)NC(=O)[C@H](Cc1c[nH]c2ccccc12)NC(=O)[C@H](CCCNC(=N)N)NC(=O)[C@H](Cc1c[nH]c2ccccc12)NC(=O)[C@H](CCCNC(=N)N)NC(=O)[C@H](Cc1c[nH]c2ccccc12)NC(=O)[C@@H](N)CCCNC(=N)N)C(=O)NCCC(N)=O (HELM PEPTIDE1{R.W.R.W.R.W.K.K.[bAla].[am]}|PEPTIDE2{R.W.R.W.R.W.K}|PEPTIDE3{R.W.R.W.R.W}|PEPTIDE4{R.W.R.W.R.W}$PEPTIDE1,PEPTIDE4,7:R3-6:R2|PEPTIDE1,PEPTIDE2,8:R3-7:R2|PEPTIDE2,PEPTIDE3,7:R3-6:R2$$$V2.0)
Staphylococcus aureus [4]
  IC50: 31.7 µg/mL (≈ 6.92 µM)
Escherichia coli [5]
  IC50: 20.8 µg/mL (≈ 4.54 µM)
[6]
  HC50 at 1 h: 365 µg/mL

## O=C(O)c1cn(C2CC2)c2cc(N3CCNCC3)c(F)cc2c1=O [CIPROFLOXACIN]
Acinetobacter baumannii [11]
  fold change (FC): 43

## N=C(N)NCCC[C@H](N)C(=O)N[C@@H](Cc1ccccc1)C(=O)NCCCC[C@H](NC(=O)[C@H](Cc1ccccc1)NC(=O)[C@@H](N)CCCNC(=N)N)C(=O)NCCCC[C@H](NC(=O)[C@H](CCCCNC(=O)[C@H](Cc1ccccc1)NC(=O)[C@@H](N)CCCNC(=N)N)NC(=O)[C@H](Cc1ccccc1)NC(=O)[C@@H](N)CCCNC(=N)N)C(=O)NCCC(N)=O
Staphylococcus aureus [4]
  IC50: 180 µg/mL (≈ 107 µM)
Acinetobacter baumannii [7]
  IC50: 160 µg/mL (≈ 94.9 µM)
Escherichia coli [5]
  IC50: 30 µg/mL (≈ 17.8 µM)
[6]
  HC50 at 1 h: 2780 µg/mL

## N=C(N)NCCC[C@H](NC(=O)[C@H](Cc1c[nH]c2ccccc12)NC(=O)[C@H](CCCNC(=N)N)NC(=O)[C@H](Cc1c[nH]c2ccccc12)NC(=O)[C@H](CCCNC(=N)N)NC(=O)[C@H](Cc1c[nH]c2ccccc12)NC(=O)[C@@H](N)CCCNC(=N)N)C(=O)N[C@@H](Cc1c[nH]c2ccccc12)C(=O)O (H-RWRWRWRW-OH)
Escherichia coli [1]
  growth inhibition (GI): Active
Staphylococcus aureus [2]
  growth inhibition (GI): Active
Acinetobacter baumannii [3]
  growth inhibition (GI): Active

## NCCCC[C@H](N)C(=O)N[C@@H](Cc1ccc(O)cc1)C(=O)NCCCC[C@H](NC(=O)[C@H](Cc1ccc(O)cc1)NC(=O)[C@@H](N)CCCCN)C(=O)NCCCC[C@H](NC(=O)[C@H](CCCCNC(=O)[C@H](Cc1ccc(O)cc1)NC(=O)[C@@H](N)CCCCN)NC(=O)[C@H](Cc1ccc(O)cc1)NC(=O)[C@@H](N)CCCCN)C(=O)NCCC(N)=O
Staphylococcus aureus [4]
  IC50: 240 µg/mL (≈ 147 µM)
Acinetobacter baumannii [7]
  IC50: 360 µg/mL (≈ 220 µM)
Escherichia coli [5]
  IC50: 84.4 µg/mL (≈ 51.5 µM)
[6]
  HC50 at 1 h: 3740 µg/mL

## GENTAMICIN
Acinetobacter baumannii [11]
  fold change (FC): 8
Escherichia coli [12]
  fold change (FC): 13

## N=C(NCCCCCCNC(=N)NC(=N)Nc1ccc(Cl)cc1)NC(=N)Nc1ccc(Cl)cc1 [CHLORHEXIDINE]
Escherichia coli [12]
  fold change (FC): 5
Staphylococcus aureus [8]
  fold change (FC): 2.5
